The values that follow come from patent US20260092061A1, “COMPOUNDS FOR TARGETED PROTEIN DEGRADATION” (Amphista Therapeutics Limited, priority 2022, published 2026).

Where only a bound is given, the exact number is not on record here.

The target of experiment [1] is T1, BRD9 (Homo sapiens, UniProt Q9H8M2).
T1 sequence (Q9H8M2 1-597): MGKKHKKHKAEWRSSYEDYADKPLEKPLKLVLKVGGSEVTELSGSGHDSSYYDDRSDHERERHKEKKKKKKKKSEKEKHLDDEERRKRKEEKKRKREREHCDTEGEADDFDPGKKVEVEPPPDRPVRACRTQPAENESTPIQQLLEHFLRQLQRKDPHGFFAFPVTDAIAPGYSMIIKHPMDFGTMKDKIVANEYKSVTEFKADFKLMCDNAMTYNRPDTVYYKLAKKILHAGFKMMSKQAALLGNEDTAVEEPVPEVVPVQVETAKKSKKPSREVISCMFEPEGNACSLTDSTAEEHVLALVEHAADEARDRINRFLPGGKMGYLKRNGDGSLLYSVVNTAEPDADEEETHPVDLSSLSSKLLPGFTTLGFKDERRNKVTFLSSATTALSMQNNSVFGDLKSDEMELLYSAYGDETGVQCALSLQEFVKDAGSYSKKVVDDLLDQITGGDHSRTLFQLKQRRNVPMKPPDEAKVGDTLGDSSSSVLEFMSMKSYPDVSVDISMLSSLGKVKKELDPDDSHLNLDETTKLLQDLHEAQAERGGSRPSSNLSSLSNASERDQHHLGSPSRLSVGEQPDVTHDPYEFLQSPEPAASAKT
Put plainly: BRD9 degradation, HiBiT-BRD9 KI HEK293 (LgBiT) cells, NanoGlo Lytic Endpoint assay (Assay Protocol 1). The format is cell-based. As to conditions: BRD9 degradation; for Dmax / Dmax at 1 µM: HEK293; for Dmax at 1 µM: 1 μM compound at 6 h of treatment, read-out: Assay 1 Dmax. The procedure, abridged:
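HiBiT-tagged BRD9 knock-in HEK293 (LgBiT) cells exposed to compounds for 6 h at 37 °C, 5% CO2. Residual BRD9 measured by HiBiT lytic luminescence. % BRD9 remaining normalised to DMSO-treated cells (high) and no-cell wells (low).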
A general note: The HiBiT peptide binds its large partner to form an active luciferase.

In experiment [2] the target is T1, BRD9. Put plainly: Degradation of BRD9 (IF), immunofluorescence in MV4-11 cells, 24 hours (Assay Protocol 2). The format is cell-based. Set-up: A suspension of MV4-11 cells (ATCC CRL-9591) was prepared; host or cells: MV4-11. The procedure, abridged:
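MV4-11 cells treated with compound 24 h at 37° C., then fixed, permeabilised and immunostained for BRD9 (anti-BRD9 E4Q3F, Alexa 647 secondary, Hoechst counterstain). High-content imaging quantified nuclear BRD9 signal; % BRD9 remaining normalised to DMSO and 100 nM CFT-8634 controls.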

[3] abbreviates: Table 2, Assay Protocol 1, 6 h of treatment, read-out: Assay 1 DC50.
The mark [4] stands for this setting: MV4-11, 24 h, Table 2, BRD9 degradation (IF), Assay Protocol 2, MV4-11 cells, read-out: Assay 2 DCmax.
The mark [5] stands for this setting: Assay protocol 1, read-out: DC50.
The mark [6] stands for this setting: Assay protocol 1, read-out: Dmax.
[7] abbreviates: Assay protocol 2, BRD9 degradation, read-out: DC50.
Setting [8] is: MV4-11, Assay protocol 2, BRD9 degradation, read-out: Dmax.

For the compound `COc1cc(-c2cn(C)c(=O)c(C)c2C)cc(OC)c1CN1CCN(C(=O)C2CCCN(C(=O)/C(C#N)=C/C(C)(C)C)C2)CC1` (stereo not shown) [Compound B206], the Dmax is greater than 70% at BRD9 [1] (Table 4, determined according to Assay Protocol 1, read-out: Dmax^1) and 50 to 70% at BRD9 [2] (MV4-11, Table 4, BRD9 degradation, determined according to Assay Protocol 2, read-out: Dmax^2). For the same compound, the DC50 on BRD9 [1] (Table 4, determined according to Assay Protocol 1, read-out: DC50^1) lay in the range of 25 to 200 nM; at BRD9 [2] (Table 4, BRD9 degradation, determined according to Assay Protocol 2, read-out: DC50^2), 25 to 200 nM.
With `COc1cc(-c2cn(C)c(=O)c3cnccc23)cc(OC)c1CN1CCN(Cc2cccc3c2CCN(C(=O)/C(C#N)=C/C(C)(C)C)[C@@H]3C)CC1` (single isomer, unassigned) [Compound A25, (E/Z)-2-(5-((4-(2,6-dimethoxy-4-(2-methyl-1-oxo-1,2-dihydro-2,7-naphthyridin-4-yl)benzyl)piperazin-1-yl)methyl)-1-methyl-1,2,3,4-tetrahydroisoquinoline-2-carbonyl)-4,4-dimethylpent-2-enenitrile], on BRD9 [1] (Table 2, Assay Protocol 1), the Dmax at 1 µM lay within 40 to 70%. For the same compound, the DC50 on BRD9 [1] (setting [3]) is less than 1.25 nM. Further, the Dmax at BRD9 [2] (setting [4]) lay in the range of 40 to 70%.
As to `COc1cc(-c2cn(C)c(=O)c(C)c2C)cc(OC)c1CN1C[C@H](C)N(Cc2cccc3c2CCN(C(=O)/C(C#N)=C/C(C)(C)C)C3C)C[C@H]1C` (mixture of isomers) [Compound B122, (E/Z)-2-(5-(((2S,5R)-4-(2,6-dimethoxy-4-(1,4,5-trimethyl-6-oxo-1,6-dihydropyridin-3-yl)benzyl)-2,5-dimethylpiperazin-1-yl)methyl)-1-methyl-1,2,3,4-tetrahydroisoquinoline-2-carbonyl)-4,4-dimethylpent-2-enenitrile], the values for the DC50 on BRD9 [1] (setting [5]) and on BRD9 [2] (setting [7]) were 1.25 to 10 nM and 10 to 25 nM, respectively. In addition, the Dmax at BRD9 [1] (setting [6]) and on BRD9 [2] (setting [8]) was greater than 75% in each case.
For the compound `COc1cc(-c2cn(C)c(=O)c(C)c2C)cc(OC)c1CN1CCC(Oc2cccc3c2CCN(C(=O)/C(C#N)=C/c2cccc(C(F)(F)F)n2)C3C)CC1` (stereo not shown) [B22], the Dmax is greater than 75% on BRD9 [1] (setting [6]) and 40 to 70% on BRD9 [2] (setting [8]).
Regarding `COc1cc(-c2cn(C)c(=O)c(C)c2C)cc(OC)c1CN1CCCN(Cc2cccc3c2CCN(C(=O)/C(C#N)=C/c2cccc(Br)n2)C3C)CC1` (mixture of isomers) [Compound B2, (E/Z)-3-(6-bromopyridin-2-yl)-2-(5-((4-(2,6-dimethoxy-4-(1,4,5-trimethyl-6-oxo-1,6-dihydropyridin-3-yl)benzyl)-1,4-diazepan-1-yl)methyl)-1-methyl-1,2,3,4-tetrahydroisoquinoline-2-carbonyl)acrylonitrile], the DC50 on BRD9 [1] (setting [5]) and at BRD9 [2] (setting [7]) was 1.25 to 10 nM throughout. The Dmax at BRD9 [1] (setting [6]) is greater than 75%; at BRD9 [2] (setting [8]), 70 to 75%.
For `COc1cc(-c2cn(C)c(=O)c(C)c2C)cc(OC)c1CN1CCN(CC(=O)NCCOc2cccc(C3CCCN3C(=O)/C(C#N)=C/c3nccs3)c2)CC1` (mixture of isomers) [Compound B32, (E/Z)—N-(2-(3-(1-(2-cyano-3-(thiazol-2-yl)acryloyl)pyrrolidin-2-yl)phenoxy)ethyl)-2-(4-(2,6-dimethoxy-4-(1,4,5-trimethyl-6-oxo-1,6-dihydropyridin-3-yl)benzyl)piperazin-1-yl)acetamide], the DC50 at BRD9 [1] (setting [5]) and on BRD9 [2] (setting [7]) was 25 to 1000 nM in each case. Further, the Dmax on BRD9 [1] (setting [6]) and on BRD9 [2] (setting [8]) was 40 to 70% throughout.
Take `COc1cc(-c2cn(C)c(=O)c(C)c2C)cc(OC)c1CN1CCN(Cc2cccc3c2CCN(C(=O)/C(C#N)=C/C2CC(F)(F)C2)C3C)CC1` (mixture of isomers) [Compound B1, (E/Z)-3-(3,3-difluorocyclobutyl)-2-(5-((4-(2,6-dimethoxy-4-(1,4,5-trimethyl-6-oxo-1,6-dihydropyridin-3-yl)benzyl)piperazin-1-yl)methyl)-1-methyl-1,2,3,4-tetrahydroisoquinoline-2-carbonyl)acrylonitrile]: the Dmax at BRD9 [1] (setting [6]) and on BRD9 [2] (setting [8]) was 40 to 70% each time. Besides, the DC50 at BRD9 [2] (setting [7]) is less than 1.25 nM.
Turning to `COc1cc(-c2cn(C)c(=O)c3cnccc23)cc(OC)c1CN1CCN(Cc2cccc3c2CCN(C(=O)/C(C#N)=C/c2ncccc2F)C3C)CC1` (mixture of isomers) [Compound A42, (E/Z)-2-[5-[[4-[[2,6-dimethoxy-4-(2-methyl-1-oxo-2,7-naphthyridin-4-yl)phenyl]methyl]piperazin-1-yl]methyl]-1-methyl-3,4-dihydro-1H-isoquinoline-2-carbonyl]-3-(3-fluoro-2-pyridyl)prop-2-enenitrile], at BRD9 [1] (Table 2, Assay Protocol 1), the Dmax at 1 µM was in the range of 40 to 70%. The DC50 at BRD9 [1] (setting [3]) is 10 to 25 nM; on BRD9 [2] (Table 2, BRD9 degradation (IF), Assay Protocol 2, MV4-11 cells, read-out: Assay 2 DC50), less than 1.25 nM. Besides, the Dmax on BRD9 [2] (setting [4]) fell in the range of 40 to 70%.
For `COc1cc(-c2cn(C)c(=O)c(C)c2C)cc(OC)c1CN1CCN(Cc2cccc3c2CCN(C(=O)/C(C#N)=C/C2(F)CC2)C3C)CC1` (mixture of isomers) [Compound B20, (E/Z)-2-(5-((4-(2,6-dimethoxy-4-(1,4,5-trimethyl-6-oxo-1,6-dihydropyridin-3-yl)benzyl)piperazin-1-yl)methyl)-1-methyl-1,2,3,4-tetrahydroisoquinoline-2-carbonyl)-3-(1-fluorocyclopropyl)acrylonitrile], the 50% degradation concentration (DC50) at BRD9 [1] (setting [5]) and on BRD9 [2] (setting [7]) was less than 1.25 nM each time. Further, the Dmax at BRD9 [1] (setting [6]) and on BRD9 [2] (setting [8]) was greater than 75% in each case.
On to `COc1cc(-c2cn(C)c(=O)c(C)c2C)cc(OC)c1CN1CCN(Cc2cccc3c2CCN(C(=O)/C(C#N)=C/c2nc(C(F)(F)F)cs2)C3C)CC1` (mixture of isomers) [Compound B11, (E/Z)-2-(5-((4-(2,6-dimethoxy-4-(1,4,5-trimethyl-6-oxo-1,6-dihydropyridin-3-yl)benzyl)piperazin-1-yl)methyl)-1-methyl-1,2,3,4-tetrahydroisoquinoline-2-carbonyl)-3-(4-(trifluoromethyl)thiazol-2-yl)acrylonitrile], for which the DC50 on BRD9 [1] (setting [5]) and at BRD9 [2] (setting [7]) was less than 1.25 nM throughout. Further, the Dmax on BRD9 [1] (setting [6]) and at BRD9 [2] (setting [8]) was greater than 75% each time.
With `COc1cc(-c2cn(C)c(=O)c(C)c2C)cc(OC)c1CN(C)Cc1cccc(C2CCCN2C(=O)/C(C#N)=C/C(C)(C)C)c1` (mixture of isomers) [Compound B78, (E/Z)-2-(2-(3-(((2,6-dimethoxy-4-(1,4,5-trimethyl-6-oxo-1,6-dihydropyridin-3-ylbenzyl)methyl)amino)methyl)phenyl)pyrrolidine-1-carbonyl)-4,4-dimethylpent-2-enenitrile], the DC50 at BRD9 [1] (setting [5]) was 1.25 to 10 nM; on BRD9 [2] (setting [7]), 10 to 25 nM. The Dmax at BRD9 [1] (setting [6]) and at BRD9 [2] (setting [8]) was greater than 75% throughout.
For the compound `COc1cc(-c2cn(C)c(=O)c(C)c2C)cc(OC)c1CN1CCN(Cc2cccc3c2CCN(C(=O)/C(C#N)=C/c2cccc(C(F)(F)F)n2)C3C)CC1` (mixture of isomers) [Compound A53, (E/Z)-2-(5-((4-(2,6-dimethoxy-4-(1,4,5-trimethyl-6-oxo-1,6-dihydropyridin-3-yl)benzyl)piperazin-1-yl)methyl)-1-methyl-1,2,3,4-tetrahydroisoquinoline-2-carbonyl)-3-(6-(trifluoromethyl)pyridin-2-yl)acrylonitrile], the Dmax at 1 µM on BRD9 [1] (Table 2, Assay Protocol 1) lay in the range of 40 to 70%. Besides, the DC50 on BRD9 [1] (setting [3]) fell in the range of 1.25 to 10 nM. Moreover, the Dmax at BRD9 [2] (setting [4]) was in the range of 40 to 70%.

The DC50 is the midpoint of the concentration-degradation curve.
